Experimental data taken from US20250205268A1, “TREATMENT OF VIRUSES WITH ANTIVIRAL NUCLEOSIDES” (priority 2021, published 2025).

Columns and labels:
[1] = tested on: SARS-CoV-2
[2] = tested on: SARS-CoV-2; conditions: in vivo

## CC(C)C(=O)OC[C@H]1O[C@@H](n2ccc(NO)nc2=O)[C@H](O)[C@@H]1O [Compound A, {(2R,3S,4R,5R)-3,4-dihydroxy-5-[4-(hydroxyimino)-2-oxo-3,4-dihydropyrimidin-1 (2H)-yl]oxolan-2-yl}methyl 2-methylpropanoate]
[1]; 800 mg, end of therapy
  mean SARS-CoV-2 viral RNA mutation rates per 10,000 nucleotides: 5.9 per 10,000 nucleotides
[1]; human, in vivo
  Drug-related adverse events: 11.0%
[2]
  participants hospitalized or died through Day 29: ~3%
  percentage of mutations in viral RNA post-treatment at Day 5: highest percentage of mutations
